Reference: the supplement of paper PMC10307832

What follows are cell lines tested with COc1cc(Nc2ncc(F)c(Nc3ccc4c(n3)NC(=O)C(C)(C)O4)n2)cc(OC)c1OC [R406] + O=C(CCCCCCC(=O)Nc1ccccc1)NO [Vorinostat] (partner 1 µM) (assay: relative viability (nuclei count vs DMSO), 5 days (fraction); higher = more cells survive). Settings: first compound 0.08 µM.
Summary of the method: (§1)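 Dosing by pin tool came one day after lung cancer cell lines were seeded in 1536-well plates, using either one drug or a fixed anchor-drug dose plus five library-drug doses (not always all listed) in √10 steps. After 5 days, nuclei were counted on 4× images. Relative viability is treated-well nuclei count divided by vehicle-well nuclei count, and values are medians of duplicate plates.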
H3255 showed a relative viability of 0.767.
Work on COR-L23 yielded a relative viability of 0.483.
In the case of COR-L 105, the relative viability is reported as 0.743.
IA-LM was tested, and the relative viability was 0.984.
LOU-NH91 gave a relative viability of 0.926.
Work on ChaGo-K-1 yielded a relative viability of 0.755.
Work on HCC-44 yielded a relative viability of 1.07.
HCC-78 was tested, and the relative viability was 0.452.
NCI-H1648 was tested, and the relative viability was 0.457.

Same assay, conditions: first compound 0.253 µM
With NCI-H522 the relative viability was 1.04.
In the case of NCI-H2342, the relative viability is reported as 0.84.
NCI-H838 was tested, and the relative viability was 0.795.
Work on NCI-H1650 yielded a relative viability of 0.634.
NCI-H1993 gave a relative viability of 1.03.
NCI-H441 was tested, and the relative viability was 0.754.
PC-14 was tested, and the relative viability was 0.84.
In the case of LCLC-103H, the relative viability is reported as 0.764.
For NCI-H596, the relative viability was 0.681.
NCI-H2126 gave a relative viability of 0.797.
EMC-BAC-2 gave a relative viability of 0.785.
NCI-H2085 showed a relative viability of 0.8.
HCC-366 showed a relative viability of 0.482.
NCI-H1666 was tested, and the relative viability was 1.09.
In the case of NCI-H647, the relative viability is reported as 0.645.
With LK-2 the relative viability was 0.404.
Cell Line NCI-H2087 has a relative viability of 0.741.
NCI-H358 showed a relative viability of 0.726.
In the case of NCI-H2170, the relative viability is reported as 0.791.
H3255 was tested, and the relative viability was 0.816.
With COR-L23 the relative viability was 0.433.
Cell Line COR-L 105 has a relative viability of 0.893.
For IA-LM, the relative viability was 0.756.
Work on LOU-NH91 yielded a relative viability of 0.993.
For ChaGo-K-1, the relative viability was 0.839.
For HCC-44, the relative viability was 1.1.
Cell Line HCC-78 has a relative viability of 0.426.
Work on NCI-H1648 yielded a relative viability of 0.427.

Same assay, conditions: first compound 0.8 µM
NCI-H522 was tested, and the relative viability was 1.01.
Work on NCI-H2342 yielded a relative viability of 0.699.
NCI-H838 gave a relative viability of 0.769.
Work on NCI-H1650 yielded a relative viability of 0.664.
NCI-H1993 was tested, and the relative viability was 0.963.
With NCI-H441 the relative viability was 0.76.
PC-14 was tested, and the relative viability was 0.975.
With LCLC-103H the relative viability was 0.834.
For NCI-H596, the relative viability was 0.72.
NCI-H2126 was tested, and the relative viability was 0.819.
EMC-BAC-2 showed a relative viability of 0.53.
NCI-H2085 was tested, and the relative viability was 0.847.
Cell Line HCC-366 has a relative viability of 0.332.
NCI-H1666 showed a relative viability of 1.05.
Work on NCI-H647 yielded a relative viability of 0.611.
LK-2 showed a relative viability of 0.293.
For NCI-H2087, the relative viability was 0.885.
NCI-H358 gave a relative viability of 0.722.
With NCI-H2170 the relative viability was 0.987.
For H3255, the relative viability was 0.996.
COR-L23 was tested, and the relative viability was 0.424.
In the case of COR-L 105, the relative viability is reported as 0.824.
For IA-LM, the relative viability was 1.04.
Work on LOU-NH91 yielded a relative viability of 0.914.
ChaGo-K-1 showed a relative viability of 0.822.
HCC-44 showed a relative viability of 1.1.
HCC-78 showed a relative viability of 0.412.
Cell Line NCI-H1648 has a relative viability of 0.562.

Same assay, conditions: first compound 2.53 µM
For NCI-H522, the relative viability was 0.838.
NCI-H2342 gave a relative viability of 0.752.
For NCI-H838, the relative viability was 0.458.
In the case of NCI-H1650, the relative viability is reported as 0.396.
NCI-H1993 showed a relative viability of 0.433.
Cell Line NCI-H441 has a relative viability of 0.905.
Work on PC-14 yielded a relative viability of 0.523.
Work on LCLC-103H yielded a relative viability of 0.779.
With NCI-H596 the relative viability was 0.38.
In the case of NCI-H2126, the relative viability is reported as 0.581.
For EMC-BAC-2, the relative viability was 0.411.
NCI-H2085 was tested, and the relative viability was 0.691.
With HCC-366 the relative viability was 0.137.
Work on NCI-H1666 yielded a relative viability of 1.1.
Work on NCI-H647 yielded a relative viability of 0.66.
In the case of LK-2, the relative viability is reported as 0.291.
Work on NCI-H2087 yielded a relative viability of 0.646.
Work on NCI-H358 yielded a relative viability of 0.314.
Work on NCI-H2170 yielded a relative viability of 0.571.
H3255 gave a relative viability of 0.72.
With COR-L23 the relative viability was 0.279.
In the case of COR-L 105, the relative viability is reported as 0.651.
IA-LM showed a relative viability of 0.99.
Cell Line LOU-NH91 has a relative viability of 0.53.
For ChaGo-K-1, the relative viability was 0.609.
With HCC-44 the relative viability was 1.04.
For HCC-78, the relative viability was 0.29.
NCI-H1648 showed a relative viability of 0.468.

Same assay, conditions: first compound 8 µM
With NCI-H522 the relative viability was 0.812.
NCI-H2342 showed a relative viability of 0.74.
In the case of NCI-H838, the relative viability is reported as 0.194.
Cell Line NCI-H1650 has a relative viability of 0.389.
Work on NCI-H1993 yielded a relative viability of 0.447.
NCI-H441 showed a relative viability of 0.699.
PC-14 showed a relative viability of 0.451.
LCLC-103H was tested, and the relative viability was 0.566.
With NCI-H596 the relative viability was 0.263.
In the case of NCI-H2126, the relative viability is reported as 0.707.
With EMC-BAC-2 the relative viability was 0.145.
NCI-H2085 showed a relative viability of 0.561.
For HCC-366, the relative viability was 0.077.
NCI-H1666 was tested, and the relative viability was 1.03.
Work on NCI-H647 yielded a relative viability of 0.113.
LK-2 showed a relative viability of 0.237.
For NCI-H2087, the relative viability was 0.954.
Cell Line NCI-H358 has a relative viability of 0.273.
NCI-H2170 gave a relative viability of 0.658.
Work on H3255 yielded a relative viability of 0.638.
With COR-L23 the relative viability was 0.244.
For COR-L 105, the relative viability was 0.514.
Cell Line IA-LM has a relative viability of 1.05.
For LOU-NH91, the relative viability was 0.498.
ChaGo-K-1 was tested, and the relative viability was 0.637.
Work on HCC-44 yielded a relative viability of 1.22.
HCC-78 gave a relative viability of 0.331.
NCI-H1648 was tested, and the relative viability was 0.643.

The cell lines below were run with COc1cc(Nc2ncc(F)c(Nc3ccc4c(n3)NC(=O)C(C)(C)O4)n2)cc(OC)c1OC [R406] + Cc1nc(Nc2ncc(C(=O)Nc3c(C)cccc3Cl)s2)cc(N2CCN(CCO)CC2)n1 [Dasatinib] (partner 0.075 µM) in the same assay as above. Settings: first compound 0.08 µM.
Summary of the method: as §1
NCI-H522 showed a relative viability of 0.78.
NCI-H2342 gave a relative viability of 0.309.
Work on NCI-H838 yielded a relative viability of 0.25.
NCI-H1650 gave a relative viability of 0.302.
With NCI-H1993 the relative viability was 0.564.
NCI-H441 gave a relative viability of 0.669.
Work on PC-14 yielded a relative viability of 0.271.
In the case of LCLC-103H, the relative viability is reported as 0.491.
With NCI-H596 the relative viability was 0.619.
Work on NCI-H2126 yielded a relative viability of 0.6.
